In the supplement of paper PMC11424490:
Counter-ions that a name gives are not always drawn.

Key:
NCI-H2122 [1] = experiment: combination cScore with adagrasib (Bliss gap around IC50) (%PoC); higher = stronger additive effect
Description: (§1)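 Combination screen of 179 inhibitors with the KRAS G12C inhibitor adagrasib (MRTX849) in dose matrices, CellTiter-Glo readout in NCI-H2122 (72 h), SW837 (144 h) and NCI-H358 cells. The cScore is the mean Bliss-independence gap (expected minus observed viability, in %PoC) over a 3x3 field around the IC50s of both drugs. Positive means additive, and >~10 is stated as clear additive.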

SW837 [2] = experiment: as above
Description: as §1

NCI-H2122 [3] = experiment: fitted bottom plateau of viability curve, % of DMSO control; higher = less maximal inhibition; extreme values may be limits of the assay
Description: (§2)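 CellTiter-Glo proliferation assay in KRAS G12C mutant NCI-H2122 (72 h), SW837 (144 h) and NCI-H358 cells in 384-well plates. Monotherapy dose response was fitted with a four-parameter curve after normalisation to DMSO controls (% of control, PoC). IC50 is the relative IC50, averaged over replicates. Bottom is the fitted lower plateau in %PoC; Max.Conc. is the top dose tested.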

SW837 [4] = experiment: as above
Description: as §2

NCI-H2122 [5] = experiment: combination cScore with sotorasib (Bliss gap around IC50) (%PoC); higher = stronger additive effect
Description: as §1, with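 “sotorasib (AMG510)” for “adagrasib (MRTX849)”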

Row | Structure (SMILES) | combination cScore with adagrasib (NCI-H2122 [1]) | combination cScore with adagrasib (SW837 [2]) | fitted bottom plateau of viability curve (NCI-H2122 [3]) [%] | fitted bottom plateau of viability curve (SW837 [4]) [%] | combination cScore with sotorasib (NCI-H2122 [5])
1 | CCc1cnn2c(NCc3ccc[n+]([O-])c3)cc(N3CCCC[C@H]3CCO)nc12 + C=C(F)C(=O)N1CCN(c2nc(OC[C@@H]3CCCN3C)nc3c2CCN(c2cccc4cccc(Cl)c24)C3)C[C@@H]1CC#N [adagrasib] | -0.08 | 0.92 | – | – | –
2 | CN(C)CCCC(=O)Nc1n[nH]c2nnc(-c3ccccc3)cc12 + C=C(F)C(=O)N1CCN(c2nc(OC[C@@H]3CCCN3C)nc3c2CCN(c2cccc4cccc(Cl)c24)C3)C[C@@H]1CC#N [adagrasib] | -12.3 | -2.5 | – | – | –
3 | COc1ccc(Cn2ccc3ccc(C(=O)NO)cc32)cc1 + C=C(F)C(=O)N1CCN(c2nc(OC[C@@H]3CCCN3C)nc3c2CCN(c2cccc4cccc(Cl)c24)C3)C[C@@H]1CC#N [adagrasib] | 2.01 | 1.45 | – | – | –
4 | COc1ccc2nc3ccc(OC)cc3c(SCCCN)c2c1 + C=C(F)C(=O)N1CCN(c2nc(OC[C@@H]3CCCN3C)nc3c2CCN(c2cccc4cccc(Cl)c24)C3)C[C@@H]1CC#N [adagrasib] | 7.77 | -2.24 | – | – | –
5 | C[C@@H](Oc1cc(-c2cnn(C3CCNCC3)c2)cnc1N)c1c(Cl)ccc(F)c1Cl + C=C(F)C(=O)N1CCN(c2nc(OC[C@@H]3CCCN3C)nc3c2CCN(c2cccc4cccc(Cl)c24)C3)C[C@@H]1CC#N [adagrasib] | 6.58 | 12.7 | – | – | –
6 | Cc1[nH]c(/C=C2\C(=O)Nc3ccc(S(=O)(=O)Cc4c(Cl)cccc4Cl)cc32)c(C)c1C(=O)N1CCC[C@@H]1CN1CCCC1 + C=C(F)C(=O)N1CCN(c2nc(OC[C@@H]3CCCN3C)nc3c2CCN(c2cccc4cccc(Cl)c24)C3)C[C@@H]1CC#N [adagrasib] | 6.94 | -0.48 | – | – | –
7 | NC(=O)c1cnc(N[C@@H]2CCCC[C@@H]2N)nc1Nc1cccc(-n2nccn2)c1 + C=C(F)C(=O)N1CCN(c2nc(OC[C@@H]3CCCN3C)nc3c2CCN(c2cccc4cccc(Cl)c24)C3)C[C@@H]1CC#N [adagrasib] | 11.8 | 3.74 | – | – | –
8 | O=[N+]([O-])c1ccc(NCCNc2ncc(-c3ncc[nH]3)c(-c3ccc(Cl)cc3Cl)n2)nc1 + C=C(F)C(=O)N1CCN(c2nc(OC[C@@H]3CCCN3C)nc3c2CCN(c2cccc4cccc(Cl)c24)C3)C[C@@H]1CC#N [adagrasib] | -12.7 | 5.65 | – | – | –
9 | On1ncc2cc(CCc3nn[nH]n3)ccc21 + C=C(F)C(=O)N1CCN(c2nc(OC[C@@H]3CCCN3C)nc3c2CCN(c2cccc4cccc(Cl)c24)C3)C[C@@H]1CC#N [adagrasib] | 7.37 | -2.04 | – | – | –
10 | CC[C@H](C)C(=O)O[C@H]1C[C@@H](C)C=C2C=C[C@H](C)[C@H](CC[C@@H]3C[C@@H](O)CC(=O)O3)[C@H]21 [Lovastatin] (top concentration tested 10000 nM) | – | – | 56.1 | 83.6 | –
11 | Cc1ccc(NC(=O)c2ccc(CN3CCN(C)CC3)cc2)cc1Nc1nc(-c2cccnc2)cs1 [Masitinib] (top concentration tested 1000.1 nM) | – | – | 79.5 | 95.6 | –
12 | C[C@H](Cc1ccc(O)c(O)c1)[C@@H](C)Cc1ccc(O)c(O)c1 [Masoprocol] (top concentration tested 9999.8 nM) | – | – | 71.4 | 86.2 | –
13 | CN(C)C(=N)NC(=N)N [Metformin] (top concentration tested 50000 nM) | – | – | 76.5 | 97.5 | –
14 | CN1CCN(c2ccc(-c3cccc(CN4CCOCC4)c3)cc2NC(=O)c2c[nH]c(=O)cc2C(F)(F)F)CC1 [OICR-9429] (top concentration tested 10000 nM) | – | – | 62.6 | 95.4 | –
15 | N[C@H]1CC[C@H](N[C@@H]2C[C@H]2c2ccccc2)CC1 [ORY-1001] (top concentration tested 49.848 nM) | – | – | 68.1 | 90.5 | –
16 | N[C@H]1CC[C@H](N[C@@H]2C[C@H]2c2ccccc2)CC1 [ORY-1001] + C=CC(=O)N1CCN(c2nc(=O)n(-c3c(C)ccnc3C(C)C)c3nc(-c4c(O)cccc4F)c(F)cc23)[C@@H](C)C1 [sotorasib] | – | – | – | – | 8.65

Row | Structure (SMILES) | combination cScore with adagrasib (NCI-H2122 [1]) | combination cScore with adagrasib (SW837 [2]) | fitted bottom plateau of viability curve (NCI-H2122 [3]) [%] | fitted bottom plateau of viability curve (SW837 [4]) [%] | combination cScore with sotorasib (NCI-H2122 [5])
17 | CCCS(=O)(=O)Nc1ccc(F)c(C(=O)c2c[nH]c3ncc(Cl)cc23)c1F [PLX4720] (top concentration tested 10000 nM) | – | – | 73.6 | 101 | –
18 | CCCS(=O)(=O)Nc1ccc(F)c(C(=O)c2c[nH]c3ncc(Cl)cc23)c1F [PLX4720] + C=C(F)C(=O)N1CCN(c2nc(OC[C@@H]3CCCN3C)nc3c2CCN(c2cccc4cccc(Cl)c24)C3)C[C@@H]1CC#N [adagrasib] | – | -5.68 | – | – | –
19 | Cc1[nH]c2ccccc2c1CCNCc1ccc(/C=C/C(=O)NO)cc1 [Panobinostat] + C=CC(=O)N1CCN(c2nc(=O)n(-c3c(C)ccnc3C(C)C)c3nc(-c4c(O)cccc4F)c(F)cc23)[C@@H](C)C1 [sotorasib] | – | – | – | – | 0.52
20 | Cc1ccc(Nc2nccc(N(C)c3ccc4c(C)n(C)nc4c3)n2)cc1S(N)(=O)=O [Pazopanib] (top concentration tested 10000 nM) | – | – | 80.9 | 91.9 | –
21 | CC(C)(C)c1cc(NC(=O)Nc2ccc(-c3cn4c(n3)sc3cc(OCCN5CCOCC5)ccc34)cc2)no1 [Quizartinib] (top concentration tested 1000.1 nM) | – | – | 79.3 | 94.1 | –
22 | CO[C@H]1C[C@@H]2CC[C@@H](C)[C@@](O)(O2)C(=O)C(=O)N2CCCC[C@H]2C(=O)O[C@H]([C@H](C)C[C@@H]2CC[C@@H](O)[C@H](OC)C2)CC(=O)[C@H](C)/C=C(\C)[C@@H](O)[C@@H](OC)C(=O)[C@H](C)C[C@H](C)/C=C/C=C/C=C/1C [Rapamycin] (top concentration tested 1000 nM) | – | – | 64.1 | 88.4 | –
23 | CNC(=O)c1cc(Oc2ccc(NC(=O)Nc3ccc(Cl)c(C(F)(F)F)c3)c(F)c2)ccn1 [Regorafenib] (top concentration tested 999.95 nM) | – | – | 82.1 | 92.7 | –
24 | N#CC[C@H](C1CCCC1)n1cc(-c2ncnc3[nH]ccc23)cn1 [Ruxolitinib] (top concentration tested 9999.9 nM) | – | – | 73.3 | 88.3 | –
25 | CNC(=O)c1cc(Oc2ccc(NC(=O)Nc3ccc(Cl)c(C(F)(F)F)c3)cc2)ccn1 [Sorafenib] (top concentration tested 999.95 nM) | – | – | 84.3 | 92.6 | –
26 | Cn1nnc2c(C(N)=O)ncn2c1=O [Temozolomide] (top concentration tested 50000 nM) | – | – | 83.2 | 93.2 | –
27 | C[C@@H]1CCN(C(=O)CC#N)C[C@@H]1N(C)c1ncnc2[nH]ccc12 [Tofacitinib citrate] (top concentration tested 10000 nM) | – | – | 63 | 99 | –
28 | CC1=C(/C=C/C(C)=C/C=C/C(C)=C/C(=O)O)C(C)(C)CCC1 [Tretinoin] (top concentration tested 10000 nM) | – | – | 78.8 | 105 | –
29 | CC(C)Nc1cc(-c2c[nH]c(C(=O)N[C@H](CO)c3cccc(Cl)c3)c2)c(Cl)cn1 [Ulixertinib] (top concentration tested 99.921 nM) | – | – | 64.5 | 97.1 | –
30 | CCCC(CCC)C(=O)O [Valproic acid] (top concentration tested 10000 nM) | – | – | 72.1 | 92.8 | –
31 | C[C@]1(c2nc3c(C(N)=O)cccc3[nH]2)CCCN1 [Veliparib] (top concentration tested 10000 nM) | – | – | 93.6 | 102 | –
32 | CS(=O)(=O)c1ccc(C(=O)Nc2ccc(Cl)c(-c3ccccn3)c2)c(Cl)c1 [Vismodegib] (top concentration tested 10000 nM) | – | – | 91.1 | 103 | –
